Test results published in patent publication US9879050B2, “Substituted urea depsipeptide analogs as activators of the CLPP endopeptidase” (priority 2013, dated 2018).
Converted amounts (≈) assume the structure as drawn.

Tests used:
S. aureus ClpP (Sa-ClpP) = target: T1, S. aureus ClpP (Sa-ClpP) (Staphylococcus aureus, UniProt Q2G036); experiment: ClpP activation, casein-BODIPY digestion assay (first described method); assay type: biochemical; conditions: first described ClpP activation assay (**); 10 μM saClpP, 25 μg/ml BODIPY FL casein, 37° C.; read-out: ClpP Activation EC50
T1 construct: made in house; host or cells: E. coli BL21 (DE3)
T1 sequence (Q2G036 whole entry): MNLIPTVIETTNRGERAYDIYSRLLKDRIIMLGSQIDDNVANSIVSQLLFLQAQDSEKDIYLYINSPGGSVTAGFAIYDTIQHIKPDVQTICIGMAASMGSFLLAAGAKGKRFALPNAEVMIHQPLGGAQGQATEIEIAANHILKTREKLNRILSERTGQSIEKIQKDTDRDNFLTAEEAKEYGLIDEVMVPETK
In short: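 Purified E. coli-expressed Sa-ClpP (10 μM) with 25 μg/ml BODIPY FL casein and 0-100 μM compound in 50 mM Tris pH 8, 200 mM KCl, 1 mM TCEP at 37° C. Fluorescence (ex 485/em 528 nm) read every 5 min over 45 min; velocities fit to dose-response for EC50 of 50% activation, in triplicate.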

Sa-ClpP = target: T2, Sa-ClpP (Staphylococcus aureus, UniProt Q2G036); experiment: ADEP displacement fluorescence polarization assay; assay type: binding, S. aureus; conditions: 1 μM Sa-ClpP, 50 nM FP probe ADEP 2591; read-out: ADEP Displacement IC50
T2 construct: made in house; host or cells: E. coli BL21 (DE3)
T2 sequence (Q2G036 whole entry): as above
In short: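 Displacement of TAMRA-labelled ADEP 2591 probe (50 nM) from 1 μM Sa-ClpP, pre-equilibrated 1 h in Tris·HCl pH 8.0 with 2% DMSO, then 120 min at room temperature with compound, triplicate. Polarization (mP) read ex 530/em 579 nm, normalised to 20 μM ADEP 2378 and DMSO controls; four-parameter fit.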

[1] = Cytotoxicity assay, CellTiter-Glo cell viability; assay type: cell-based; conditions: African green monkey; Vero cells, 72 hours; read-out: Cytotoxicity IC50
In short: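 Vero cells seeded overnight at 37 °C in DMEM with 10% FBS, then exposed to serial dilutions of compound for 72 h. Viability read by CellTiter-Glo luminescence; IC50 from duplicates, given as the range of two independent experiments.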

B. subtilis ATCC 23857 = experiment: Minimal inhibitory concentration, microbroth dilution; assay type: cell-based; conditions: Bacillus subtilis, ATCC23857, read-out: Minimal Inhibitory Concentration B. subtilis ATCC 23857
In short: (§1)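 Compound was diluted twofold in the appropriate broth. Bacterial suspension (approx. 10^5 cfu/mL) was then added in equal volume, giving a maximum test concentration of 200 μM. After aerobic overnight incubation at 37 °C, wells were inspected visually for growth.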

S. aureus ATCC 29213 = experiment: as above; assay type: cell-based; conditions: Staphylococcus aureus, ATCC29213, read-out: Minimal Inhibitory Concentration S. aureus ATCC 29213
In short: as §1

Compound | EC50 (S. aureus ClpP (Sa-ClpP)) [µM] | IC50 (Sa-ClpP) [µM] | IC50 at 72 h [1] [µM] | MIC (B. subtilis ATCC 23857) [µM] | MIC (S. aureus ATCC 29213) [µM]
Cc1ccc(NC(=O)N[C@@H](Cc2cc(F)cc(F)c2)C(=O)N[C@@H]2C(=O)N3CCC[C@H]3C(=O)N3CCCC[C@H]3C(=O)N[C@@H](C)C(=O)N3C[C@@H](C)C[C@H]3C(=O)O[C@H]2C)cc1 [Compound 18, (S)-3-(3,5-Difluorophenyl)-2-(3-(P-Tolyl)Ureido)-N-((2R,6S,8aS,14aS,20S,21S,23aS)-2,6,21-Trimethyl-5,8,14,19,23-Pentaoxooctadecahydro-1H,5H,14H,19H-Pyrido[2,1-I]Dipyrrolo[2,1-C:2′,1′-L][1]Oxa[4,7,10,13]Tetraazacyclohexadecin-20-Yl)Propanamide] | 7 ± 0.9 | 5.6 ± 0.3 | 26.7 ± 3.6 | < 0.1 | 0.1 (≈ 0.0808 µg/mL)
C[C@H]1C[C@H]2C(=O)O[C@@H](C)[C@H](NC(=O)[C@H](Cc3cc(F)cc(F)c3)NC(=O)Nc3ccc(C(F)(F)F)cc3)C(=O)N3CCC[C@H]3C(=O)N3CCCC[C@H]3C(=O)N[C@@H](C)C(=O)N2C1 [Compound 19, (S)-3-(3,5-Difluorophenyl)-2-(3-(4-(Trifluoromethyl)Phenyl)Ureido)-N-((2R,6S,8aS,14aS,20S,21S,23aS)-2,6,21-Trimethyl-5,8,14,19,23-Pentaoxooctadecahydro-1H,5H,14H,19H-Pyrido[2,1-I]Dipyrrolo[2,1-C:2′,1′-L][1]Oxa[4,7,10,13]Tetraazacyclohexadecin-20-Yl)Propanamide] | 3.2 ± 0.1 | 5.7 ± 0.3 | 36.8 ± 4.1 | < 0.1 | 0.1 (≈ 0.0862 µg/mL)
Cc1ccc(NC(=O)N[C@@H](Cc2ccccc2)C(=O)N[C@H]2COC(=O)[C@@H]3C[C@@H](C)CN3C(=O)[C@H](C)NC(=O)[C@@H]3CCCCN3C(=O)[C@@H]3CCCN3C2=O)cc1 [Compound 23, (S)—N-((2R,6S,8aS,14aS,20S,23aS)-2,6-Dimethyl-5,8,14,19,23-Pentaoxooctadecahydro-1H,5H,14H,19H-Pyrido[2,1-I]Dipyrrolo[2,1-C:2′,1′-L][1]Oxa[4,7,10,13]Tetraazacyclohexadecin-20-Yl)-3-Phenyl-2-(3-(P-Tolyl)Ureido)Propanamide] | 2.6 ± 0.4 | 7.1 ± 0.3 | 74 ± 7.7 | < 0.2 | 0.4 (≈ 0.303 µg/mL)
Cc1ccc(NC(=O)N[C@@H](Cc2cc(F)cc(F)c2)C(=O)N[C@H]2COC(=O)[C@@H]3C[C@@H](C)CN3C(=O)[C@H](C)NC(=O)[C@@H]3CCCCN3C(=O)[C@@H]3CCCN3C2=O)cc1 [Compound 24, (S)-3-(3,5-Difluorophenyl)-N-((2R,6S,8aS,14aS,20S,23aS)-2,6-Dimethyl-5,8,14,19,23-Pentaoxooctadecahydro-1H,5H,14H,19H-Pyrido[2,1-I]Dipyrrolo[2,1-C:2′,1′-L][1]Oxa[4,7,10,13]Tetraazacyclohexadecin-20-Yl)-2-(3-(P-Tolyl)Ureido)Propanamide] | 3.3 ± 0.2 | 8.6 ± 0.5 | 93.8 ± 4.8 | 2.2 (≈ 1.75 µg/mL) | 0.5 (≈ 0.397 µg/mL)
